{"source": "ChEMBL document CHEMBL2069272", "about": "“Leishmanicidal activities and cytotoxicities of bisnaphthoquinone analogues and naphthol derivatives from Burman Diospyros burmanica” (Bioorg Med Chem, 2012)", "key": {"Leishmania major": {"test_system": "Leishmania major", "test": "Antileishmanial activity against Leishmania major promastigotes incubated for 48 hrs by MTT assay", "assay_type": "functional, organism-based"}, "[1]": {"test": "Selectivity index, ratio of IC50 for mouse RAW264.7 cells to IC50 for Leishmania major promastigotes", "assay_type": "toxicity, cell-based", "settings": "RAW264.7 cells versus Leishmania major promastigotes, read-out: Ratio IC50"}, "[2]": {"test": "Toxicity against mouse RAW264.7 cells by XTT assay", "assay_type": "cell-based"}}, "note": "Residues, ends and D or L forms follow the SMILES beside them. *: point of attachment. Cbz = O=C(OCc1ccccc1)*", "data": [{"smiles": "COc1cccc2c1C(=O)C=C(C)C2=O", "values": [{"measurement": "IC50", "setting": "Leishmania major", "value": 3.3, "unit": "µM"}, {"measurement": "selectivity ratio", "setting": "[1]", "value": 13.6}, {"measurement": "IC50", "setting": "[2]", "value": 45, "unit": "µM"}]}, {"smiles": "COc1c(C)cc(O)c2c(OC)cccc12", "values": [{"measurement": "IC50", "setting": "Leishmania major", "value": "> 100", "unit": "µM"}, {"measurement": "IC50", "setting": "[2]", "value": "> 100", "unit": "µM"}]}, {"smiles": "COc1c(C)cc2cccc(OC)c2c1O", "values": [{"measurement": "IC50", "setting": "Leishmania major", "value": 45, "unit": "µM"}, {"measurement": "selectivity ratio", "setting": "[1]", "value": "> 2.22"}, {"measurement": "IC50", "setting": "[2]", "value": "> 100", "unit": "µM"}]}, {"smiles": "COc1cccc2cc(C)cc(O)c12", "values": [{"measurement": "IC50", "setting": "Leishmania major", "value": 50, "unit": "µM"}, {"measurement": "selectivity ratio", "setting": "[1]", "value": "> 2"}, {"measurement": "IC50", "setting": "[2]", "value": "> 100", "unit": "µM"}]}, {"smiles": "COc1ccc(OC)c2c(O)cc(C)cc12", "values": [{"measurement": "IC50", "setting": "Leishmania major", "value": 38, "unit": "µM"}, {"measurement": "selectivity ratio", "setting": "[1]", "value": "> 2.63"}, {"measurement": "IC50", "setting": "[2]", "value": "> 100", "unit": "µM"}]}, {"smiles": "COc1cccc2c1C(=O)C(O)=C(C)C2=O", "values": [{"measurement": "IC50", "setting": "Leishmania major", "value": "> 100", "unit": "µM"}, {"measurement": "IC50", "setting": "[2]", "value": "> 100", "unit": "µM"}]}, {"smiles": "COc1ccc(OC)c2c1C(=O)C=C(C)C2=O", "values": [{"measurement": "IC50", "setting": "[2]", "value": "> 100", "unit": "µM"}]}, {"smiles": "COc1cccc2cc(C=O)cc(O)c12", "values": [{"measurement": "IC50", "setting": "Leishmania major", "value": "> 100", "unit": "µM"}, {"measurement": "IC50", "setting": "[2]", "value": "> 100", "unit": "µM"}]}, {"smiles": "COc1c(O)ccc2c1C(=O)C(C)=CC2=O", "values": [{"measurement": "IC50", "setting": "Leishmania major", "value": 93, "unit": "µM"}, {"measurement": "selectivity ratio", "setting": "[1]", "value": 1.03}, {"measurement": "IC50", "setting": "[2]", "value": 96, "unit": "µM"}]}, {"smiles": "C[C@@H]1[C@H](O)[C@@H](C)/C=C/C=C/C=C/C=C/C=C/C=C/C=C/[C@H](O[C@@H]2O[C@H](C)[C@@H](O)[C@H](N)[C@@H]2O)C[C@@H]2O[C@](O)(C[C@@H](O)C[C@@H](O)[C@H](O)CC[C@@H](O)C[C@@H](O)CC(=O)O[C@H]1C)C[C@H](O)[C@H]2C(=O)O", "note": "[AMPHOTERICIN B]", "values": [{"measurement": "IC50", "setting": "Leishmania major", "value": 0.035, "unit": "µM"}]}, {"smiles": "COc1cc(C)cc2c1C(=O)C=C(C1=C(C)C(=O)c3ccc(O)c(OC)c3C1=O)C2=O", "note": "[BURMANIN A]", "values": [{"measurement": "IC50", "setting": "Leishmania major", "value": 0.053, "unit": "µM"}, {"measurement": "selectivity ratio", "setting": "[1]", "value": 453}, {"measurement": "IC50", "setting": "[2]", "value": 24, "unit": "µM"}]}, {"smiles": "COc1cc(C)cc2c1C(=O)C=C(c1c(C)cc3ccc(O)c(OC)c3c1O)C2=O", "note": "[BURMANIN B]", "values": [{"measurement": "IC50", "setting": "Leishmania major", "value": 0.18, "unit": "µM"}, {"measurement": "selectivity ratio", "setting": "[1]", "value": 172}, {"measurement": "IC50", "setting": "[2]", "value": 31, "unit": "µM"}]}, {"smiles": "COc1cc(C)cc2c1C(=O)C=C(c1c(C)c(OC)c3ccc(O)c(OC)c3c1O)C2=O", "note": "[BURMANIN C]", "values": [{"measurement": "IC50", "setting": "Leishmania major", "value": 0.15, "unit": "µM"}, {"measurement": "selectivity ratio", "setting": "[1]", "value": 147}, {"measurement": "IC50", "setting": "[2]", "value": 22, "unit": "µM"}]}, {"smiles": "CC(C)C[C@@H](C=O)NC(=O)[C@H](CC(C)C)NC(=O)[C@H](CC(C)C)NC(=O)OCc1ccccc1", "note": "[MG-132] (Cbz-Leu-Leu-Leu-aldehyde)", "values": [{"measurement": "IC50", "setting": "[2]", "value": 0.63, "unit": "µM"}]}]}
